Measured values taken from the supplement of paper PMC10702517.
± gives the standard deviation.

Assay: chemical recovery from spiked human plasma; higher = better extraction
Settings: pooled human plasma
[1] = extraction method: SPE only (HLB 96-well)
[2] = extraction method: solvent precipitation (ACN + hexane)
[3] = extraction method: PES+SPE (3 d PDMS equilibration then HLB SPE)
[4] = extraction method: SPE only (HLB 96-well), PES comparison experiment

Row | Compound | chemical recovery [1] [%] | chemical recovery [2] [%] | chemical recovery [3] [%] | chemical recovery [4] [%]
1 | c1ccc(NNc2ccccc2)cc1 [Hydrazobenzene] | 2.13 ± 0.29 | – | – | –
2 | CNC(=O)O/N=C(\SC)C(=O)N(C)C [Oxamyl] | 28 ± 2.6 | 6.16 ± 4.2 | – | –
3 | CCCC[N+]1(C)[C@H]2CC(OC(=O)C(CO)c3ccccc3)C[C@H]1[C@H]1O[C@H]12 (stereo partly drawn) [Scopolamine-N-butyl] | 38.4 ± 3.4 | 65.8 ± 3.2 | 42.2 ± 2.6 | 44.2 ± 6.1
4 | CCNc1nc(NCC)[nH]c(=O)n1 [Simazine-2-Hydroxy] | 14.8 ± 5.5 | 75.6 ± 6 | 20.1 ± 4.3 | –
5 | CN(C)C(=O)Nc1ccccc1 [Fenuron] | 46.9 ± 2.6 | 74.6 ± 2.4 | 49.2 ± 5 | 49.4 ± 5.9
6 | CCCCC(CC)COC(=O)c1ccc(N(C)C)cc1 (stereo not drawn) [Padimate-O] | 22.8 ± 4.1 | – | – | –
7 | Cc1nnc(-c2ccccc2)c(=O)n1N [Metamitron] | 46.3 ± 4.3 | 70.3 ± 0.41 | 53 ± 4.2 | 92.5 ± 14
8 | Oc1cccc2n[nH]nc12 [4-Hydroxybenzotriazole] | 32.8 ± 2.4 | 3.14 ± 2.8 | – | 48 ± 8.1
9 | CCCC[N+](CCCC)(CCCC)CCCC [Tetrabutylammonium] | 43 ± 3.8 | – | – | –
10 | c1ccc2sc(SN3CCOCC3)nc2c1 [2-Morpholinothiobenzothiazole] | – | 139 ± 8.9 | – | –
11 | Cc1ccc(OS(=O)(=O)O)cc1 [p-Tolylsulfate] | 91 ± 13 | – | – | –
12 | CNC(=O)Oc1cc(C)c(S(C)(=O)=O)c(C)c1 [Methiocarb-sulfone] | 19.9 ± 1.6 | – | 0.129 ± 0.019 | –
13 | OCCN1CCN(CCC=C2c3ccccc3Sc3ccc(C(F)(F)F)cc32)CC1 [Flupentixol] | – | 51.7 ± 2.5 | – | –
14 | CC(C)(C)CC(C)(C)c1cc(-n2nc3ccccc3n2)c(O)c(C(C)(C)c2ccccc2)c1 [UV-928] | 0.72 ± 0.29 | – | – | –
15 | CC(=O)c1cc(C(C)(C)C)c(O)c(C(C)(C)C)c1 [3,5-Di-tert-butyl-4'-hydroxyacetophenone] | 20.1 ± 4.9 | 42.1 ± 2.7 | – | –
16 | Oc1ccc2c(c1)[nH]c1ccccc12 [2-Hydroxycarbazole] | 40.6 ± 5 | – | 52.1 ± 4.4 | –
17 | CC(=O)c1c(C)c([N+](=O)[O-])c(C(C)(C)C)c([N+](=O)[O-])c1C [Musk ketone] | 1.17 ± 0.25 | 15.5 ± 3.3 | – | –
18 | CC(c1ccc(O)cc1)c1ccc(O)cc1 [Bisphenol-E] | 51 ± 4 | 63.7 ± 3.1 | 62.3 ± 2.5 | –
